Data published in US9216968B2, “Heterocyclic derivative and pharmaceutical drug” (NIPPON SHINYAKU CO., LTD., priority 2011, dated 2015).
Structures can show the parent of a compound that is named as a salt.

Tests used:
[1] = test system: A549 cells; assay: Inhibition of PGE2 production in A549 cell (IL-1β stimulated); assay type: cell-based, human; settings: Homo sapiens, A549, 24 h, IL-1β 5 ng/well, PGE2 in culture medium
In short: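 After IL-1β (5 ng/well) stimulation for 24 h at 37 °C, following a 60-min compound pretreatment in RPMI with 3% FBS, medium PGE2 (HTRF) and PGF2α (EIA) from human A549 cells were quantified. 100% activity set as IL-1β-induced minus basal production; IC50 calculated.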

[2] = target: human mPGES-1 (Homo sapiens (Human), UniProt O14684); assay: mPGES-1 inhibiting activity (microsome fractions, PGE2 by HTRF); assay type: biochemical; settings: microsomes from CHO-K1 cells transfected with human mPGES-1; PGH2 1 μM, 4° C., 60 seconds; read-out: mPGES-1 Inhibition IC50
human mPGES-1, sequence (O14684 whole entry): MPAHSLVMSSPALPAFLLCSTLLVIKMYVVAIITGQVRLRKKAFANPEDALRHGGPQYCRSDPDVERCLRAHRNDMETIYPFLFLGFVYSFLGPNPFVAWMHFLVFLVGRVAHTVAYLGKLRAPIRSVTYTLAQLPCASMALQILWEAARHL
In short: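 PGE2 formation read by HTRF after 60 s at 4 °C with 1 μM PGH2 substrate, following 20 min compound preincubation (1% DMSO) with human mPGES-1 microsomes from transfected CHO-K1 cells. Buffer: potassium phosphate, reduced glutathione, pH 7.4; IC50 from activity relative to enzyme-free blank.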

| SMILES | IC50 [1] | IC50 [2] |
| --- | --- | --- |
| Cc1c(Cl)cccc1NC(=O)c1cc(NC(=O)c2c(F)cccc2Cl)cc2[nH]c(NC[C@@H]3CCCO3)nc12 [Example 198, 6-{[(2-Chloro-6-fluorophenyl)-carbonyl]amino}-N-(3-chloro-2-methylphenyl)-2-{[(2S)-tetrahydrofuran-2-ylmethyl]amino}-1H-benzimidazole-4-carboxamide hydrochloride] | 34.1 nM | 6 nM |
| Cc1c(Cl)cccc1NC(=O)c1cc(NC(=O)c2c(F)cccc2Cl)cc2[nH]c(NC[C@H]3CCCO3)nc12 [Example 199, 6-{[(2-Chloro-6-fluorophenyl)-carbonyl]amino}-N-(3-chloro-2-methylphenyl)-2-{[(2R)-tetrahydrofuran-2-ylmethyl]amino}-1H-benzimidazole-4-carboxamide hydrochloride] | 43.2 nM | 9.7 nM |
| Cc1c(Cl)cccc1NC(=O)c1cc(NC(=O)c2c(F)cccc2Cl)cc2[nH]c(NCC(C)(C)CO)nc12 [Example 200, 6-{[(2-Chloro-6-fluorophenyl)carbonyl]amino}-N-(3-chloro-2-methylphenyl)-2-[(3-hydroxy-2,2-dimethylpropyl)amino]-1H-benzimidazole-4-carboxamide hydrochloride] | 108 nM | 4.6 nM |
| Cc1c(Cl)cccc1NC(=O)c1cc(NC(=O)c2c(F)cccc2Cl)cc2[nH]c(N[C@H](CO)C(C)C)nc12 [Example 201, 6-{[(2-Chloro-6-fluorophenyl)-carbonyl]amino}-N-(3-chloro-2-methylphenyl)-2-{[(25)-1-hydroxy-3-methylbutan-2-yl]amino}-1H-benzimidazole-4-carboxamide hydrochloride] | 253 nM | 0.5 nM |
| Cc1ccc(NC(=O)c2cc(NC(=O)c3ccccc3C(F)(F)F)cc3[nH]c(N(C)C)nc23)cc1Cl [Example 202, N-(3-Chloro-4-methylphenyl)-2-(dimethylamino)-6-({[2-(trifluoromethyl)phenyl]carbonyl}amino)-1H-benzimidazole-4-carboxamide hydrochloride] | 5.9 nM | 4.9 nM |
| CN(C)c1nc2c(C(=O)Nc3ccc(C(C)(C)C)cc3)cc(NC(=O)c3ccccc3C(F)(F)F)cc2[nH]1 [Example 203, N-(4-tert-Butylphenyl)-2-(dimethylamino)-6-({[2-(trifluoromethyl)phenyl]carbonyl}amino)-1H-benzimidazole-4-carboxamide hydrochloride] | 5.2 nM | 1.4 nM |
| CN(C)c1nc2c(C(=O)Nc3ccc4c(c3)CCC4)cc(NC(=O)c3ccccc3C(F)(F)F)cc2[nH]1 [Example 204, N-(2,3-Dihydro-1H-inden-5-yl)-2-(dimethylamino)-6-({[2-(trifluoromethyl)phenyl]carbonyl}amino)-1H-benzimidazole-4-carb oxamide hydrochloride] | 12.2 nM | 1 nM |
| Cc1ccc(NC(=O)c2cc(NC(=O)c3c(F)cccc3Cl)cc3[nH]c(N(C)C)nc23)cc1Cl [Example 205, 6-{[(2-Chloro-6-fluorophenyl)carbonyl]amino}-N-(3-chloro-4-methylphenyl)-2-(dimethylamino)-1H-benzimidazole-4-carboxamide hydrochloride] | 25.6 nM | 3.7 nM |
| Cc1ccc(NC(=O)c2cc(NC(=O)c3c(Cl)cccc3Cl)cc3[nH]c(N(C)C)nc23)cc1Cl [Example 206, N-(3-Chloro-4-methylphenyl)-6-{[(2,6-dichlorophenyl)carbonyl]amino}-2-(dimethylamino)-1H-benzimidazole-4-carboxamide hydrochloride] | 74.5 nM | 3.2 nM |
| Cc1ccc(NC(=O)c2cc(NC(=O)c3cc(Cl)ccc3Cl)cc3[nH]c(N(C)C)nc23)cc1Cl [Example 207, N-(3-Chloro-4-methylphenyl)-6-{[(2,5-dichlorophenyl)carbonyl]amino}-2-(dimethylamino)-1H-benzimidazole-4-carboxamide hydrochloride] | 6.2 nM | 3.6 nM |
| Cc1c(Cl)cccc1NC(=O)c1cc(NC(=O)c2cc(Cl)ccc2Cl)cc2[nH]c(C3CC3)nc12 [Example 208, N-(3-Chloro-2-methylphenyl)-2-cyclopropyl-6-{[(2,5-dichlorophenyl)carbonyl]amino}-1H-benzimidazole-4-carboxamide hydrochloride] | 13 nM | 0.7 nM |
| Cc1ccc(NC(=O)c2cc(NC(=O)c3cc(Cl)ccc3Cl)cc3[nH]c(C4CC4)nc23)cc1Cl [Example 209, N-(3-Chloro-4-methylphenyl)-2-cyclopropyl-6-{[(2,5-dichlorophenyl)carbonyl]amino}-1H-benzimidazole-4-carboxamide hydrochloride] | 10.3 nM | 1 nM |
| Cc1c(Cl)cccc1NC(=O)c1cc(NC(=O)c2cc(Cl)ccc2Cl)cc2[nH]c(C3(C)CC3)nc12 [Example 210, N-(3-Chloro-2-methylphenyl)-6-{[(2,5-dichlorophenyl)carbonyl]amino}-2-(1-methylcyclopropyl)-1H-benzimidazole-4-carboxamide hydrochloride] | 13.8 nM | 4.7 nM |
| Cc1ccc(NC(=O)c2cc(NC(=O)c3cc(Cl)ccc3Cl)cc3[nH]c(C4(C)CC4)nc23)cc1Cl [Example 211, N-(3-Chloro-4-methylphenyl)-6-{[(2,5-dichlorophenyl)carbonyl]amino}-2-(1-methylcyclopropyl)-1H-benzimidazole-4-carboxamide hydrochloride] | 8.5 nM | 2.5 nM |
| COCc1nc2c(C(=O)Nc3cccc(Cl)c3C)cc(NC(=O)c3ccccc3S(C)(=O)=O)cc2[nH]1 [Example 212, N-(3-Chloro-2-methylphenyl)-2-(methoxymethyl)-6-({[2-(methylsulfonyl)phenyl]carbonyl}amino)-1H-benzimidazole-4-carboxamide] | 305 nM | 42.3 nM |
| COCCc1nc2c(C(=O)Nc3ccc(C)c(Cl)c3)cc(NC(=O)c3cc(Cl)ccc3Cl)cc2[nH]1 [Example 213, N-(3-Chloro-4-methylphenyl)-6-{[(2,5-dichlorophenyl)carbonyl]amino}-2-(2-methoxyethyl)-1H-benzimidazole-4-carboxamide hydrochloride] | 142 nM | 0.9 nM |

Now from value to molecule:

| IC50 [1] | IC50 [2] | SMILES |
| --- | --- | --- |
| 60.7 nM | 5.2 nM | COCc1nc2c(C(=O)Nc3ccccc3)cc(NC(=O)c3ccccc3C(F)(F)F)cc2[nH]1 [Example 214, 2-(Methoxymethyl)-N-phenyl-6-({[2-(trifluoromethyl)phenyl]carbonyl}amino)-1H-benzimidazole-4-carboxamide hydrochloride] |
| 772 nM | 140 nM | CCCNC(=O)c1cc(NC(=O)c2ccccc2C(F)(F)F)cc2[nH]c(COC)nc12 [Example 215, 2-(Methoxymethyl)-N-propyl-6-({[2-(trifluoromethyl)phenyl]carbonyl}amino)-1H-benzimidazole-4-carboxamide hydrochloride] |
| 317 nM | 26.9 nM | COCc1nc2c(C(=O)NCc3ccccc3)cc(NC(=O)c3ccccc3C(F)(F)F)cc2[nH]1 [Example 217, N-Benzyl-2-(methoxymethyl)-6-({[2-(trifluoromethyl)phenyl]carbonyl}amino)-1H-benzimidazole-4-carboxamide hydrochloride] |
| 42.8 nM | 5.3 nM | COCc1nc2c(C(=O)NCC3CCCCC3)cc(NC(=O)c3ccccc3C(F)(F)F)cc2[nH]1 [Example 218, N-(Cyclohexylmethyl)-2-(methoxymethyl)-6-({[2-(trifluoromethyl)phenyl]carbonyl}amino)-1H-benzimidazole-4-carboxamide hydrochloride] |
| 26 nM | 2 nM | COCc1nc2c(C(=O)Nc3cccc4ccccc34)cc(NC(=O)c3ccccc3C(F)(F)F)cc2[nH]1 [Example 219, 2-(Methoxymethyl)-N-(naphthalen-1-yl)-6-({[2-(trifluoromethyl)phenyl]carbonyl}amino)-1H-benzimidazole-4-carboxamide hydrochloride] |
| 39 nM | 2.3 nM | COCc1nc2c(C(=O)Nc3ccccc3Cc3ccccc3)cc(NC(=O)c3ccccc3C(F)(F)F)cc2[nH]1 [Example 229, N-(2-Benzylphenyl)-2-(methoxymethyl)-6-({[2-(trifluoromethyl)phenyl]carbonyl}amino)-1H-benzimidazole-4-carboxamide hydrochloride] |
| 100 nM | 1.9 nM | COCc1nc2c(C(=O)Nc3cccc4cccnc34)cc(NC(=O)c3ccccc3C(F)(F)F)cc2[nH]1 [Example 230, 2-(Methoxymethyl)-N-(quinolin-8-yl)-6-({[2-(trifluoromethyl)phenyl]carbonyl}amino)-1H-benzimidazole-4-carboxamide hydrochloride] |
| 150 nM | 1.9 nM | COCc1nc2c(C(=O)NCC3CCCCCC3)cc(NC(=O)c3ccccc3C(F)(F)F)cc2[nH]1 [Example 231, N-(Cycloheptylmethyl)-2-(methoxymethyl)-6-({[2-(trifluoromethyl)phenyl]carbonyl}amino)-1H-benzimidazole-4-carboxamide hydrochloride] |
| 125 nM | 7.7 nM | COCc1nc2c(C(=O)Nc3nc4ccccc4o3)cc(NC(=O)c3ccccc3C(F)(F)F)cc2[nH]1 [Example 232, N-(1,3-Benzoxazol-2-yl)-2-(methoxymethyl)-6-({[2-(trifluoromethyl)phenyl]carbonyl}amino)-1H-benzimidazole-4-carboxamide hydrochloride] |
